Experimental data published in patent US20230059136A1, “THE COMPOUNDS AND COMPOSITIONS FOR TREATING CONDITIONS ASSOCIATED WITH NLRP ACTIVITY” (Novartis AG, priority 2018, published 2023).

System: IL-1β production in PMA-differentiated THP-1 cells
Assay: IL-1β production in PMA-differentiated THP-1 cells stimulated with gramicidin (hTHP-1 assay containing 2% fetal bovine serum)
Format: cell-based, human
Details: Homo sapiens, THP-1, Table B1; 2% fetal bovine serum; cells printed as numeric bound; read-out: hTHP-1 IC50 (Average IC50 of compounds in hTHP-1 assay)
In short: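 THP-1 cells were differentiated with PMA 20 ng/ml for 16-18 h, then plated at 50,000 cells/well in RPMI with 2% FBS. They were preincubated 1 h with compound (100–0.0017 μM final, 0.37% DMSO), then stimulated with gramicidin 5 μM for 2 h. Supernatant IL-1β was measured by HTRF.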

Q: How did the IC50 turn out when `CC(C)c1cc2c(c(C(C)C)c1CC(=O)N=S(N)(=O)c1cnn3c1OCCC3)COC2` (single isomer, unassigned) [Example 309, (S) or (R)-N-(amino (6,7-dihydro-5H-pyrazolo[5,1-b][1,3]oxazin-3-yl)(oxo)-λ^6-sulfaneylidene)-2-(4,6-diisopropyl-1,3-dihydroisobenzofuran-5-yl)acetamide] was run?
A: The IC50 was > 30 µM.

Q: Which IC50 does the source give for `CC(C)c1cc(F)cc(C(C)C)c1C(C)C(=O)N=S(N)(=O)c1cnc(C(C)(C)O)s1` (stereo not shown) [Example 96, N-(amino(2-(2-hydroxypropan-2-yl)thiazol-5-yl)(oxo)-λ^6-sulfaneylidene)-2-(4-fluoro-2,6-diisopropylphenyl)propanamide] here?
A: Its IC50 is > 30 µM.

Q: How did the IC50 turn out when `CC(C)c1cc2c(c(C(C)C)c1CC(=O)N=S(N)(=O)c1sc(CN(C)C)cc1F)COC2` (single isomer, unassigned) [Example 308, (S) or (R)-N-(amino(5-((dimethylamino)methyl)-3-fluorothiophen-2-yl)(oxo)-λ^6-sulfaneylidene)-2-(4,6-diisopropyl-1,3-dihydroisobenzofuran-5-yl)acetamide] was run?
A: Its IC50 is > 30 µM.

Same assay, conditions: Homo sapiens, THP-1, Table B1; 2% fetal bovine serum; class symbols; read-out: hTHP-1 IC50 (Average IC50 of compounds in hTHP-1 assay)

Q: Which IC50 does the source give for `CCc1cc2c(c(C(C)C)c1CC(=O)N=S(N)(=O)c1cnc(C(C)(C)O)s1)COC2` (stereo not shown) [Example 260, N-(amino(2-(2-hydroxypropan-2-yl)thiazol-5-yl)(oxo)-λ^6-sulfaneylidene)-2-(6-ethyl-4-isopropyl-1,3-dihydroisobenzofuran-5-yl)acetamide] here?
A: The IC50 was 5 to 30 µM.

Q: How did the IC50 turn out when `CC(C)c1ccc(F)c(C(C)C)c1CC(=O)N=S(=O)(NC(=O)Cc1c(C(C)C)ccc(F)c1C(C)C)c1ccc(CN(C)C)nc1` (stereo not shown) [Example 225, N-(6-((dimethylamino)methyl)-N-(2-(3-fluoro-2,6-diisopropylphenyl)acetyl)pyridine-3-sulfonimidoyl)-2-(3-fluoro-2,6-diisopropylphenyl) acetamide] was run?
A: The IC50 was 5 to 30 µM.

Q: For `CCc1c2c(cc(C(C)C)c1CC(=O)N=S(N)(=O)c1cnc(C(C)(C)O)s1)COC2` (stereo not shown) [Example 259, N-(amino(2-(2-hydroxypropan-2-yl)thiazol-5-yl)(oxo)-λ^6-sulfaneylidene)-2-(4-ethyl-6-isopropyl-1,3-dihydroisobenzofuran-5-yl)acetamide], which IC50 is on record?
A: The IC50 was 5 to 30 µM.

Q: For `CC(C)c1cc(C(F)F)nc(C(C)C)c1CC(=O)N=S(N)(=O)c1ccc(CN(C)C)cc1` (single isomer, unassigned) [Example 331, (R) or (S)-N-(amino(4-((dimethylamino)methyl)phenyl)(oxo)-λ^6-sulfaneylidene)-2-(6-(difluoromethyl)-2,4-diisopropylpyridin-3-yl)acetamide], which IC50 is on record?
A: Its IC50 is 1 to 5 µM.

Same assay, conditions: Homo sapiens, THP-1, Table B2; 2% fetal bovine serum; cells printed as numeric bound; read-out: hTHP-1 IC50 (Average IC50 of compounds in hTHP-1 assay)

Q: How did the IC50 turn out when `CC(C)c1cc(C(F)F)cc(C(C)C)c1CC(=O)N=S(=O)(NC(=O)Cc1c(C(C)C)cc(C(F)F)cc1C(C)C)c1ccc(CN(C)C)nc1` (stereo not shown) [Example 390, 2-(4-(Difluoromethyl)-2,6-diisopropylphenyl)-N-((2-(4-(difluoromethyl)-2,6-diisopropylphenyl)acetamido)(6-((dimethylamino)methyl)pyridin-3-yl)(oxo)-λ^6-sulfaneylidene)acetamide] was run?
A: Its IC50 is > 30 µM.

Same assay, conditions: Homo sapiens, THP-1, Table B2; 2% fetal bovine serum; class symbols; read-out: hTHP-1 IC50 (Average IC50 of compounds in hTHP-1 assay)

Q: For `CC(C)c1cc(C#N)cc(C(C)C)c1CC(=O)N=[S@@](=O)(NC#N)c1nc(CO)c(C(C)(C)O)s1` [Example 376, (R)-N-(cyanamido(4-(hydroxymethyl)-5-(2-hydroxypropan-2-yl)thiazol-2-yl)(oxo)-λ^6-sulfaneylidene)-2-(4-cyano-2,6-diisopropylphenyl)acetamide], which IC50 is on record?
A: The IC50 was 0.2 to 1 µM.

Q: `CC(C)c1cc(C#N)cc(C(C)C)c1CC(=O)N=[S@](=O)(NC#N)c1nc(CO)c(C(C)(C)O)s1` [Example 375, (S)-N-(cyanamido(4-(hydroxymethyl)-5-(2-hydroxypropan-2-yl)thiazol-2-yl)(oxo)-λ^6-sulfaneylidene)-2-(4-cyano-2,6-diisopropylphenyl)acetamide] was tested. Which IC50 did it give?
A: The IC50 was 5 to 30 µM.

Same assay, conditions: Table B1; 2% fetal bovine serum; class symbols; read-out: hTHP-1 IC50 (Average IC50 of compounds in hTHP-1 assay)

Q: With `COCc1cc(C(C)C)c(CC(=O)N=S(N)(=O)c2sc(C(C)(C)O)nc2CO)c(C(C)C)c1` (single isomer, unassigned) [Example 69, (R)- or (S)-2-(2,6-diisopropyl-4-(methoxymethyl)phenyl)-N-(4-(hydroxymethyl)-2-(2-hydroxypropan-2-yl)thiazol-5-ylsulfonimidoyl)acetamide] as the compound, how does the IC50 read?
A: The IC50 was 5 to 30 µM.

Q: `CC(C)c1cc(Cl)c(F)c(C2CC2)c1CC(=O)N=S(N)(=O)c1sc(C(C)(C)O)cc1F` (single isomer, unassigned) [Example 56, (S)- or (R)-2-(4-chloro-2-cyclopropyl-3-fluoro-6-isopropylphenyl)-N-(3-fluoro-5-(2-hydroxypropan-2-yl)thiophen-2-ylsulfonimidoyl)acetamide] was tested. Which IC50 did it give?
A: The IC50 was 0.2 to 1 µM.

Q: With `CC(C)c1cc(-c2ccc3c(c2)CCOC3)cc(C(C)C)c1CC(=O)N=S(N)(=O)c1sc(C(C)(C)O)nc1CO` (single isomer, unassigned) [Example 272, (S) or (R)-N-(amino(4-(hydroxymethyl)-2-(2-hydroxypropan-2-yl)thiazol-5-yl)(oxo)-λ^6-sulfaneylidene)-2-(4-(isochroman-6-yl)-2,6-diisopropylphenyl) acetamide] as the compound, how does the IC50 read?
A: Its IC50 is 5 to 30 µM.

Q: With `CC(C)c1cc(-c2ccc3ccccc3c2)cc(C(C)C)c1CC(=O)N=S(N)(=O)c1cnc(C(C)(C)O)s1` (single isomer, unassigned) [Example 164, (S) or (R)-N-(amino(2-(2-hydroxypropan-2-yl)thiazol-5-yl)(oxo)-λ^6-sulfaneylidene)-2-(2,6-diisopropyl-4-(naphthalen-2-yl)phenyl) acetamide] as the compound, how does the IC50 read?
A: The IC50 was 1 to 5 µM.

Q: How did the IC50 turn out when `CC(C)c1ncc(F)c(C(C)C)c1CC(=O)N=S(N)(=O)c1sc(C(C)(C)O)cc1F` (single isomer, unassigned) [Example 211, N-(amino(3-fluoro-5-(2-hydroxypropan-2-yl)thiophen-2-yl)(oxo)-λ^6-sulfaneylidene)-2-(5-fluoro-2,4-diisopropylpyridin-3-yl)acetamide] was run?
A: Its IC50 is 0.2 to 1 µM.

Q: How did the IC50 turn out when `CC(C)c1cc(OC(F)F)cc(C(C)C)c1CC(=O)N=S(N)(=O)c1cnc(C(C)(C)O)s1` (single isomer, unassigned) [Example 49, (R)- or (S)-2-(4-(difluoromethoxy)-2,6-diisopropylphenyl)-N-(2-(2-hydroxypropan-2-yl)thiazol-5-ylsulfonimidoyl)acetamide] was run?
A: Its IC50 is 5 to 30 µM.

Q: With `CC(C)c1cc(C#N)c(F)c(C(C)C)c1CC(=O)N=S(N)(=O)c1sc(C(C)(C)O)cc1F` (single isomer, unassigned) [Example 44, (S)- or (R)-2-(4-cyano-3-fluoro-2,6-diisopropylphenyl)-N-(3-fluoro-5-(2-hydroxypropan-2-yl)thiophen-2-ylsulfonimidoyl)acetamide] as the compound, how does the IC50 read?
A: Its IC50 is 0.04 to 0.2 µM.

Q: Which IC50 does the source give for `CC(C)c1cc(F)cc(C2CC2)c1CC(=O)N=S(N)(=O)c1sc(C(C)(C)O)cc1F` (single isomer, unassigned) [Example 53, (R)- or (S)-2-(2-cyclopropyl-4-fluoro-6-isopropylphenyl)-N-(3-fluoro-5-(2-hydroxypropan-2-yl)thiophen-2-ylsulfonimidoyl)acetamide] here?
A: The IC50 was 1 to 5 µM.

Q: With `CC(C)c1cc(C#N)c(F)c(C(C)C)c1CC(=O)N=S(N)(=O)c1ncc(C(C)(C)O)s1` (single isomer, unassigned) [Example 42] as the compound, how does the IC50 read?
A: Its IC50 is 0.04 to 0.2 µM.

Q: Which IC50 does the source give for `Cc1nc(C(C)(C)O)sc1S(N)(=O)=NC(=O)Cc1c(C(C)C)cc(C#N)cc1C(C)C` (single isomer, unassigned) [Example 60, (S)- or (R)-2-(4-cyano-2,6-diisopropylphenyl)-N-(2-(2-hydroxypropan-2-yl)-4-methylthiazole-5-sulfonimidoyl)acetamide] here?
A: The IC50 was 0.04 to 0.2 µM.

Q: With `CC(C)c1cc(C(F)F)cc(C(C)C)c1CC(=O)N=S(N)(=O)c1ccc(C(C)(C)O)cc1F` (single isomer, unassigned) [Example 86, (S)- or (R)-2-(4-(difluoromethyl)-2,6-diisopropylphenyl)-N-(2-fluoro-4-(2-hydroxypropan-2-yl)phenylsulfonimidoyl) acetamide] as the compound, how does the IC50 read?
A: Its IC50 is 1 to 5 µM.

Q: With `CC(C)c1cc(C#N)c(F)c(C(C)C)c1CC(=O)N=S(N)(=O)c1sc(C(C)(C)O)cc1F` (single isomer, unassigned) [Example 45, (R)- or (S)-2-(4-cyano-3-fluoro-2,6-diisopropylphenyl)-N-(3-fluoro-5-(2-hydroxypropan-2-yl)thiophen-2-ylsulfonimidoyl)acetamide] as the compound, how does the IC50 read?
A: Its IC50 is 1 to 5 µM.

Q: How did the IC50 turn out when `CC(C)c1nc(-c2cccc(C(F)(F)F)c2)c(F)c(C(C)C)c1CC(=O)N=S(N)(=O)c1cnc(C(C)(C)O)s1` (single isomer, unassigned) [Example 203, (S) or (R)-N-(amino (2-(2-hydroxypropan-2-yl)thiazol-5-yl)(oxo)-λ^6-sulfaneylidene)-2-(5-fluoro-2,4-diisopropyl-6-(3-(trifluoromethyl)phenyl)pyridin-3-yl) acetamide] was run?
A: Its IC50 is 5 to 30 µM.

Same assay, conditions: Table B2; 2% fetal bovine serum; class symbols; read-out: hTHP-1 IC50 (Average IC50 of compounds in hTHP-1 assay)

Q: `CC(C)c1cc(C#N)cc(C(C)C)c1CC(=O)N=S(N)(=O)c1sc(C(C)(C)O)nc1CCO` (single isomer, unassigned) [Example 384, (S) or (R)-N-(amino(4-(2-hydroxyethyl)-2-(2-hydroxypropan-2-yl)thiazol-5-yl)(oxo)-λ^6-sulfaneylidene)-2-(4-cyano-2,6-diisopropylphenyl)acetamide] was tested. Which IC50 did it give?
A: The IC50 was 5 to 30 µM.

Q: How did the IC50 turn out when `CC(C)c1cc(C#N)cc(C(C)C)c1CC(=O)N=S(N)(=O)c1nc(CO)c(C(C)(C)O)s1` (single isomer, unassigned) [Example 386, (S) or (R)-N-(amino(4-(hydroxymethyl)-5-(2-hydroxypropan-2-yl)thiazol-2-yl)(oxo)-λ^6-sulfaneylidene)-2-(4-cyano-2,6-diisopropylphenyl)acetamide] was run?
A: The IC50 was 5 to 30 µM.
